Data on 1 compound can be found in US20080299177A1, “Supramolecular Complexes for Use in Acoustically Mediated Intracellular Drug Delivery in vivo” (Biovaluation & Analysis, Inc., priority 2007, published 2008).

For one series, the system named is Mammalian Cells. The series is described as follows: Ultrasound-mediated intracellular calcein delivery and cell viability (flow cytometry). The class given is cell-based. Particulars: calcein released from supramolecular complexes, with contrast agent. The source says: (§1) Ultrasound. Ultrasonic energy is produced using an immersible, focused, piezoceramic transducer. In this experimental system, two different matching resistance networks are necessary, allowing production of sound at 1.0 MHz and 3.0 MHz, similar to a method known in the art (Guzmán et al., 2001a, 2001b, 2002, and 2003; and Schlicher et al., 2006). A sinusoidal waveform is produced by, for example, programmable waveform generators (Stanford Research Instruments, Sunnyvale, Calif.) used in conjunction to control pulse length, frequency, and peak-to-peak voltage. The sinusoidal waveform is amplified by an RF broadband power amplifier (Electronic Navigation Industries, Rochester, N.Y.) before passing through a matching network and controlling the response of the transducer. The transducer is housed in a polycarbonate tank (FIG. 12 [601]) 34.5×32×40 cm; containing approximately 34 liters of deionized, distilled, and partially degassed water at room temperature (i.e., 22° C. to 23° C.). A thick acoustic absorber is mounted opposite the transducer to minimize standing-wave formation (not illustrated). A three-axis micropositioning system (10 μm resolution; Velmex, Bloomfield, N.Y.) is mounted on top of the tank to position samples and a hydrophone at desired locations in the tank. A PVDF membrane hydrophone (NTR Systems, Seattle, Wash.) is used to measure spatial-peak-temporal-peak negative pressure and to map and calibrate the acoustic field produced by the transducer versus the peak-to-peak voltage signal provided by a function generator.
Preparation of Nanocarriers (Supramolecular Complexes) and Samples. Before Ultrasound exposure, supramolecular complexes are prepared encapsulating calcein (i.e., 15 μM initial solution) by using a procedure of Examples 1 and 2. Samples are prepared at a cell concentration of 10^6 cells/ml, supramolecular complexes containing calcein, and the ultrasound contrast agent Optison® at concentrations of 0.30% v/v (˜1.6×10^6 bubble/ml), 1.8% v/v (˜1.1×10^7 bubble/ml), and 15.0% v/v (˜9.3×10^7 bubble/ml). Optison® is an ultrasound contrast agent, a suspension of perfluorcarbon gas bubbles stabilized with denatured human albumin that is used to serve primarily as nuclei to promote acoustic cavitation activity in sonicated samples. The product name “Optison®” may hereafter be referred to as “contrast agent” or “ultrasound contrast agent.”
Before every experiment, the desired placement of the supramolecular complex and cell samples in the acoustic field is found using the PVDF membrane hydrophone (FIG. 12 [604]). This location is approximately 1 cm and 0.5 cm out of the ultrasound's focus toward the transducer (601) (for 1.1 MHz and 3.1 MHz, respectively). The acoustic pressure is calibrated versus the peak-to-peak voltage of the signal created by the function generator, using the PVDF membrane hydrophone (604) at the desired location. These out-of-focus locations have a broader acoustic beam than at the focus, approximately 10.4-mm and 2.4-mm wide at half-amplitude (i.e., −6 dB) for 1.1 MHz and 3.1 MHz, respectively. […]
Samples are placed within chambers (605) constructed from a cylindrical bulb of polyethylene with an approximate dimension of 1.4 cm in height and 0.6 cm in diameter. […] A metal rod (606) is immediately inserted into the open end of the sample chamber and then attached to the three-axis positioning system (603), placing the sample in the desired location as determined by the hydrophone (604). […]

For series [1], the system named is Henrietta Lacks (HeLa) cells. The series is described as follows: Ultrasound-mediated intracellular calcein delivery and cell viability in HeLa cells (flow cytometry). The class given is cell-based. Particulars: HeLa cells compared with AoSMC cells; 1.1 MHz and 3.1 MHz; FIGS. 14A-14D.
Text: as §1, with “A PVDF membrane hydrophone (NTR Systems, Seattle, Wash.) is used to measure spatial-peak-temporal-peak negative pressure and to map and calibrate the acoustic field produced by the transducer versus the peak-to-peak voltage signal provided by a function generator.” left out

On to `O=C(O)CN(CC(=O)O)Cc1cc2c(cc1O)Oc1cc(O)c(CN(CC(=O)O)CC(=O)O)cc1C21OC(=O)c2ccccc21` [calcein], for which, in the series with Mammalian Cells (mild ultrasound conditions), the calcein uptake result is given as “low levels” and the cell death result was “almost no cell death”. Moreover, in the series on Mammalian Cells (moderate ultrasound conditions), the “calcein uptake (fraction of cells)” value was “one-third” and the cell death entry is reported as “some cell death”. For the same compound, in the series with Mammalian Cells (strong ultrasound conditions), the cell death result is “kill almost all insonated cells”. Moreover, in series [1], the cell death entry is listed as “lower levels of death” and the uptake result was “greater uptake”.
